In patent publication US11040056B2, “Benzimidazoles that enhance the activity of oligonucleotides” (The University of North Carolina at Chapel Hill, priority 2018, dated 2021):

Key:
HeLaLuc705 cells = assay: SSO-mediated luciferase induction assay; assay type: cell-based
Method: FIG. 1B-1E. Effects with SSOs. FIG. 1B Structure of UNC2383. […] The cells were then rinsed and incubation continued for an additional 4 h in DMEM+10% FBS. Cells were rinsed twice in PBS and luciferase activity (RLU) and cell protein determined. The larger round symbol indicates the MM oligonucleotide. Means+/−SE. N=3. […] The cells were further incubated and then luciferase and protein determined. The total time of incubation in each case was 6 h. […] Means+/−SE. N=3.
FIG. 3. Effect and Cytotoxicity of Analogs. The effect of selected UNC2383 analogs on luciferase induction by SSO623 was measured as described in Methods and in the legend of FIG. 1B-1E. Cytotoxicity was measured using the Alamar Blue method as in FIG. 1E. MM10 is the effect of 10 uM compound in the presence of a mismatched oligonucleotide. Means and SE. N=3.
HeLaLuc705 cells are stably transfected with a firefly luciferase reporter whose coding sequence is interrupted by an abnormal intron. […] NIH-3T3-MDR cells are stably transfected with a human MDR1 cDNA coding for the P-glycoprotein (Pgp). We have described the maintenance and use of these cell lines elsewhere. (18, 20)
SSO-mediated luciferase induction assays were conducted as previously described. (18) In short, HeLaLuc705 cells in 24 well culture plates were preincubated with SSO623 followed by brief treatment with the small molecule; at intervals thereafter, luciferase activity and protein content were determined. […] (30)

[1] = tested on: lysosomes of HeLa Luc 705 cells; assay: Lysotracker Red accumulation assay; assay type: cell-based; details: 2 μM
Method: FIG. 9A-9D. Effects on lysosomes. FIG. 9A: Lysotracker uptake. Accumulation of Lysotracker Red in HeLa Luc 705 cells was measured after a 2 h exposure of cells to the indicated concentrations of various analogs. The lysosomotropic compound chloroquine was included as a positive control. Means of triplicate determinations are shown. The color-coded numbers refer to the fold increase in luciferase induction attained by the concentration of analog associated with the adjacent symbol on the graph. The numbers are taken from the data of FIG. 1C for UNC2383 and FIG. 4 for UNC4267, UNC4258, and UNC4428. FIG. 9B: LT50 vs TC50. […] Nonlinear regression was calculated using Prism software. The R^2 value for the plot is 0.91. FIG. 9C: 2383 vs chloroquine; luciferase induction. HeLa Luc705 cells were exposed to SSO623 and then treated with various concentrations of UNC2383 or chloroquine for 2 h and then tested for luciferase induction following the methods described in FIG. 1B-FIG. 1E. […]
The integrity of lysosomes was evaluated using the fluorescent probe Lysotracker Red (Thermo Fisher). […] Cells were thoroughly rinsed in PBS, lysed in 0.2% TX 100, and centrifuged briefly at 4000 rpm, and 100 uL of the supernate was distributed to black 96 well plates for analysis of fluorescence using a FLUOstar Omega 96 well microplate reader.

[2] = In vivo toxicity parameters (cardiac blood samples)
Method: All animal procedures were conducted in compliance with guidelines of the UNC Laboratory Animal Medicine Department and with federal guidelines. […] (20, 32) EGFP654 mice were administered 35 mg/kg of SSO623 or mismatched oligonucleotide in buffer by intraperitoneal injection on two consecutive days. One day later, mice received either 5 mg/kg of UNC2383 in a 1:1 DMSO/PEG400 solution or only the diluent, via intraperitoneal injection. […] After 24 h, the second cohort was euthanized and tissue and cardiac blood samples were obtained. […] (31) Blood samples were analyzed by the UNC Animal Clinical Chemistry Core facility.

[3] = cells preloaded with 100 nM SSO623, FIG. 1D
[4] = 24 h after administration, means +/− SE, N = 4

With `O=C(Nc1nc2ccccc2n1CCN1CCCC1)c1cc2cc(Cl)ccc2o1` [UNC2383] the “effectiveness in cells compared to Retro-1” value (HeLaLuc705 cells) was “far more effective”, the “effectiveness in cells compared to UNC10217938” value (HeLaLuc705 cells) was “approximately equivalent” and the “enhancement of SSO actions” value (HeLaLuc705 cells; 2 μM) was “quite strongly enhanced”. The “SSO-mediated luciferase induction, comparison with chloroquine” value (HeLaLuc705 cells; FIG. 9C, 2 h, chloroquine also 16 h) was “very active”, the “onset of action: effects first observed” value (HeLaLuc705 cells; [3]) was ≤ 30 min and the “onset of action: reaching a plateau” value (HeLaLuc705 cells; [3]) was ≤ 120 min. The EC50 (HeLaLuc705 cells; luciferase induction by SSO623) was 2000 nM, the “luciferase induction after mismatched oligonucleotide” value (HeLaLuc705 cells; mismatched oligonucleotide followed by compound) was “no effect” and the “effect on lysotracker accumulation” value [1] was “little effect”. For the same molecule, the toxicity in vivo ([2]; 5 mg/kg i.p.) was “limited toxicity”, the ALT [2, 4] was 106 +/− 32 U/L and the AST [2, 4] was 76 +/− 15 U/L. The BUN [2, 4] was 20 ± 4 mg/dL, the Hb [2, 4] was 11.8 ± 0.4 g/dL and the Platelets [2, 4] was 711 +/− 85 × 10^3/ul.
